Like-named read-outs stand apart in the source and are kept apart here.
Legend:
hADORA3 = biological target: T1, hADORA3 (Homo sapiens, UniProt P0DMS8); assay: cAMP Potentiation (Eurofins-CEREP); settings: @ 10 μM
T1 sequence (P0DMS8 1-318): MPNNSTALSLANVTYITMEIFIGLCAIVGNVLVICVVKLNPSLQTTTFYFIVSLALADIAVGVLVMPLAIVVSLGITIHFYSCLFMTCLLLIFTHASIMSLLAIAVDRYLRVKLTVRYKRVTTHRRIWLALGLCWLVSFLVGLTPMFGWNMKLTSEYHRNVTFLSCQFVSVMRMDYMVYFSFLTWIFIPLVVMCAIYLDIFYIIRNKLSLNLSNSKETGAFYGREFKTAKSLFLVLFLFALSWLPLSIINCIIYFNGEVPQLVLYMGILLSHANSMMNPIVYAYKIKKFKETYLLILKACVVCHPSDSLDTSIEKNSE

hMET = biological target: T2, hMET (Homo sapiens, UniProt P08581); assay: KINOMEscan; type: binding
T2 construct: purchased DiscoverX

hMAP3K4 = biological target: T3, hMAP3K4 (Homo sapiens, UniProt Q9Y6R4); assay: KINOMEscan; type: binding
T3 construct: purchased DiscoverX (KINOMEscan platform)

hICK = biological target: T4, hICK (Homo sapiens, UniProt Q9UPZ9); assay: KINOMEscan; type: binding
T4 construct: purchased DiscoverX (KINOMEscan panel)

hRARβ = biological target: T5, hRARβ (Homo sapiens, UniProt P10826); assay: Nuclear hormone receptor assay (Eurofins-CEREP); settings: read-out: Relative IC50
T5 construct: Eurofins-CEREP

hRIOK2 = biological target: T6, hRIOK2 (Homo sapiens, UniProt Q9BVS4); assay: KINOMEscan; type: binding
T6 construct: purchased DiscoverX (KINOMEscan platform)

hCSNK1D = biological target: T7, hCSNK1D (Homo sapiens, UniProt P48730); assay: KINOMEscan; type: binding
T7 construct: purchased DiscoverX (KINOMEscan platform)

hIRAK4 = biological target: T8, hIRAK4 (Homo sapiens, UniProt Q9NWZ3); assay: KINOMEscan; type: binding
T8 construct: purchased DiscoverX (KINOMEscan panel)

hFLT3(D835Y) = biological target: T9, hFLT3(D835Y) (Homo sapiens, UniProt P36888, D835Y); assay: KINOMEscan; type: binding
T9 construct: purchased DiscoverX

hSBK1 = biological target: T10, hSBK1 (Homo sapiens, UniProt Q52WX2); assay: KINOMEscan; type: binding
T10 construct: purchased DiscoverX (KINOMEscan platform)

hJNK1 = biological target: T11, hJNK1 (Homo sapiens, UniProt P45983); assay: KINOMEscan; type: binding
T11 construct: purchased DiscoverX (KINOMEscan panel)

hABL1(F317L) = biological target: T12, hABL1(F317L) (Homo sapiens, UniProt P00519, F317L); assay: KINOMEscan; type: binding
T12 construct: purchased DiscoverX (KINOMEscan platform)

hADRα2A = biological target: T13, hADRα2A (Homo sapiens, UniProt P08913); assay: cAMP Potentiation (Eurofins-CEREP); settings: @ 10 μM
T13 sequence (P08913 1-465): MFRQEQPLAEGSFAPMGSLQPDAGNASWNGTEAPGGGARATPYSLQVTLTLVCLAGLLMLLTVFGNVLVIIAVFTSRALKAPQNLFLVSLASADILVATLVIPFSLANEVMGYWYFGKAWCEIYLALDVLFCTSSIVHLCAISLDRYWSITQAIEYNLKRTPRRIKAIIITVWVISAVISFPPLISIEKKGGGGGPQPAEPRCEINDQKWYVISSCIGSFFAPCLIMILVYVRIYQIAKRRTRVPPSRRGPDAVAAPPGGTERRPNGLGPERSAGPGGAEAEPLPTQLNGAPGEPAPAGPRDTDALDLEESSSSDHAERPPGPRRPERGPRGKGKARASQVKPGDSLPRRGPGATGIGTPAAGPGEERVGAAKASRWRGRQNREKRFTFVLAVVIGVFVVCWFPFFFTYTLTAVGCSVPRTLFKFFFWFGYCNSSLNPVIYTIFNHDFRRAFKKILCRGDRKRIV

hPPARγ = biological target: T14, hPPARγ (Homo sapiens, UniProt P37231); assay: Nuclear hormone receptor assay (Eurofins-CEREP); settings: read-out: Relative IC50
T14 construct: Eurofins-CEREP

h5HT2B = h5HT2B (Homo sapiens, UniProt P41595); assay: Calcium Mobilization Antagonist (Eurofins-CEREP); settings: read-out: % Effect, Inhibition
hKIT(D816V) = biological target: T15, hKIT(D816V) (Homo sapiens, UniProt P10721, D816V); assay: KINOMEscan; type: binding
T15 construct: purchased DiscoverX (KINOMEscan panel)

hFGFR1 = biological target: T16, hFGFR1 (Homo sapiens, UniProt P11362); assay: KINOMEscan; type: binding
T16 construct: purchased DiscoverX

hFLT3(R834Q) = biological target: T17, hFLT3(R834Q) (Homo sapiens, UniProt P36888, R834Q); assay: KINOMEscan; type: binding
T17 construct: purchased DiscoverX

hDYRK1A = biological target: T18, hDYRK1A (Homo sapiens, UniProt Q13627); assay: KINOMEscan; type: binding
T18 construct: purchased DiscoverX

hERK5 = biological target: T19, hERK5 (Homo sapiens, UniProt Q13164); assay: KINOMEscan; type: binding
T19 construct: purchased DiscoverX

hSNRK = biological target: T20, hSNRK (Homo sapiens, UniProt Q9NRH2); assay: KINOMEscan; type: binding
T20 construct: purchased DiscoverX (KINOMEscan platform)

hTRα1 = biological target: T21, hTRα1 (Homo sapiens, UniProt P10827); assay: Nuclear hormone receptor assay (Eurofins-CEREP); settings: read-out: Relative IC50
T21 construct: Eurofins-CEREP

hDAPK1 = biological target: T22, hDAPK1 (Homo sapiens, UniProt P53355); assay: KINOMEscan; type: binding
T22 construct: purchased DiscoverX (KINOMEscan platform)

hTNK2 = biological target: T23, hTNK2 (Homo sapiens, UniProt Q07912); assay: KINOMEscan; type: binding
T23 construct: purchased DiscoverX

hDCAMKL3 = biological target: T24, hDCAMKL3 (Homo sapiens, UniProt Q9C098); assay: KINOMEscan; type: binding
T24 construct: purchased DiscoverX (KINOMEscan platform)

[1] = test system: ESCC, HCC, and breast cancer cell lines; assay: Proliferation assay (CellTiter-Glo); type: cell-based; settings: Homo sapiens, range over cell lines of all three panels
Procedure: Cell viability was measured using CellTiter-Glo^TM (Promega) according to the manufacturer's instructions.

Chain of h5HT2B (P41595 whole entry): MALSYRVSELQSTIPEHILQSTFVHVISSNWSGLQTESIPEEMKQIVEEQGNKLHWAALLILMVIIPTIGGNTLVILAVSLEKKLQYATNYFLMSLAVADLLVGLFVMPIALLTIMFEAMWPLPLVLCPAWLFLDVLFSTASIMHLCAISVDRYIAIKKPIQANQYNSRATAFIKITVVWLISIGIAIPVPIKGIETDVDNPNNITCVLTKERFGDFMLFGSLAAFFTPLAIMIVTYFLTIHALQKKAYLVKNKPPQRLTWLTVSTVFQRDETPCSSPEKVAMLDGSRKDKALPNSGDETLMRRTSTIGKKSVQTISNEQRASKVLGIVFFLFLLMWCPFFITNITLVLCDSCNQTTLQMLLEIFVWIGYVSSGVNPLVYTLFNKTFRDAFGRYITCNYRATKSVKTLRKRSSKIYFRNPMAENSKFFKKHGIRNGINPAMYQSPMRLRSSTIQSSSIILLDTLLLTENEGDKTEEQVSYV
T2 sequence (P08581 25-1390): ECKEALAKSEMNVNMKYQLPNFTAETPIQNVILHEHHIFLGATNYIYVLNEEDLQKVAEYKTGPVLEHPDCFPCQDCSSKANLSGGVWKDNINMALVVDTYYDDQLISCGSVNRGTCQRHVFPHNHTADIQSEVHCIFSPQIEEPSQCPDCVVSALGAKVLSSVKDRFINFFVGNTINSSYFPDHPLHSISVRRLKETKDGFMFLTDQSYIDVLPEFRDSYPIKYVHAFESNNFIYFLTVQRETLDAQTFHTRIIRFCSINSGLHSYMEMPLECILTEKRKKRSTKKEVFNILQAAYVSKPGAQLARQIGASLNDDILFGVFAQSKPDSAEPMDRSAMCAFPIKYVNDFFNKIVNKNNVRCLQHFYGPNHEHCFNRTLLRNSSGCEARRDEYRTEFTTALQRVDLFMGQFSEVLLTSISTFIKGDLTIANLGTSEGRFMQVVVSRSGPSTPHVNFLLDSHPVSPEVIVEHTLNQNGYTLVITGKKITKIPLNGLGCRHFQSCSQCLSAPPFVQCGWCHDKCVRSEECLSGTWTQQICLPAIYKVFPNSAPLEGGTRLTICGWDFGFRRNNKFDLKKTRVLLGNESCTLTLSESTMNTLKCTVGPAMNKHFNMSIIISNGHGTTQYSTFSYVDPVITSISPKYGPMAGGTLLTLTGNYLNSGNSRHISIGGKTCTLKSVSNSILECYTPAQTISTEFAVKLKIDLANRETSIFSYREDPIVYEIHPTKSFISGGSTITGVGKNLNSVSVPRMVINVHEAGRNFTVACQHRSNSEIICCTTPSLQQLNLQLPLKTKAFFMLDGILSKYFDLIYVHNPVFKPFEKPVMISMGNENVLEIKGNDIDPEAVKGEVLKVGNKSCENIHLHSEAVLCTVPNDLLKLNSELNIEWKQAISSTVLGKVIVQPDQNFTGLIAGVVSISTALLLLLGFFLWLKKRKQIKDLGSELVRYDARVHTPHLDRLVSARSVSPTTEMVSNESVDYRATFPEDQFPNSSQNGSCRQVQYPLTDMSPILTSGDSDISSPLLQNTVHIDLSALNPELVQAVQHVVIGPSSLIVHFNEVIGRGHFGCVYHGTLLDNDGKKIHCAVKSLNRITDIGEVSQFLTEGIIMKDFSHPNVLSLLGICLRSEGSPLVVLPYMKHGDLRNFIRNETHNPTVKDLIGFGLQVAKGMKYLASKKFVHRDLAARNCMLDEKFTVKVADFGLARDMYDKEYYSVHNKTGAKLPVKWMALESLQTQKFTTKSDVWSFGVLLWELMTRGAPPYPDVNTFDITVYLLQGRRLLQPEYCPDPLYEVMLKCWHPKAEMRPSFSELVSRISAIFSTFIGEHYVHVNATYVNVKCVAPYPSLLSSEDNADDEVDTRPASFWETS
T21 sequence (P10827 1-410 isoform P10827-2): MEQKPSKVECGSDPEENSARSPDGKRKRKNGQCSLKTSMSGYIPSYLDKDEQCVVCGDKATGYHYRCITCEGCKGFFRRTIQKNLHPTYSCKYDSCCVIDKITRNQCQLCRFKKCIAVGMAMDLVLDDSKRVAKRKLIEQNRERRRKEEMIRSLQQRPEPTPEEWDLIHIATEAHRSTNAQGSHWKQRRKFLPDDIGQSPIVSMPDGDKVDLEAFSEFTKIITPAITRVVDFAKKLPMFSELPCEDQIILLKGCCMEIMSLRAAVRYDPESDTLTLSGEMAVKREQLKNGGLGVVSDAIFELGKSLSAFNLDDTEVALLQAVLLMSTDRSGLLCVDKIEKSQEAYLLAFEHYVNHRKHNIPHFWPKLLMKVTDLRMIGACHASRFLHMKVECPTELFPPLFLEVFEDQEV
T5 sequence (P10826 whole entry): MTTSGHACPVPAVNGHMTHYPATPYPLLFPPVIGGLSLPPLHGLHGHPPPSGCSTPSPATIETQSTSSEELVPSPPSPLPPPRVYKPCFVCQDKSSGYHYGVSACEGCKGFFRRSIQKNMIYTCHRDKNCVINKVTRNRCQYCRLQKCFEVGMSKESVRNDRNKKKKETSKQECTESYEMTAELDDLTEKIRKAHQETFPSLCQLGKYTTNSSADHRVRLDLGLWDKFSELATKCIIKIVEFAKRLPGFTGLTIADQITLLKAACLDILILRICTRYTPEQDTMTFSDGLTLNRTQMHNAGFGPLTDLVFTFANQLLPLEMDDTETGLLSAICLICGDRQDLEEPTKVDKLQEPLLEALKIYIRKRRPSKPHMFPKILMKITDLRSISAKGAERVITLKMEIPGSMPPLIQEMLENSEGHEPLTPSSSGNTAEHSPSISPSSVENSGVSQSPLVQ
T23 sequence (Q07912 whole entry): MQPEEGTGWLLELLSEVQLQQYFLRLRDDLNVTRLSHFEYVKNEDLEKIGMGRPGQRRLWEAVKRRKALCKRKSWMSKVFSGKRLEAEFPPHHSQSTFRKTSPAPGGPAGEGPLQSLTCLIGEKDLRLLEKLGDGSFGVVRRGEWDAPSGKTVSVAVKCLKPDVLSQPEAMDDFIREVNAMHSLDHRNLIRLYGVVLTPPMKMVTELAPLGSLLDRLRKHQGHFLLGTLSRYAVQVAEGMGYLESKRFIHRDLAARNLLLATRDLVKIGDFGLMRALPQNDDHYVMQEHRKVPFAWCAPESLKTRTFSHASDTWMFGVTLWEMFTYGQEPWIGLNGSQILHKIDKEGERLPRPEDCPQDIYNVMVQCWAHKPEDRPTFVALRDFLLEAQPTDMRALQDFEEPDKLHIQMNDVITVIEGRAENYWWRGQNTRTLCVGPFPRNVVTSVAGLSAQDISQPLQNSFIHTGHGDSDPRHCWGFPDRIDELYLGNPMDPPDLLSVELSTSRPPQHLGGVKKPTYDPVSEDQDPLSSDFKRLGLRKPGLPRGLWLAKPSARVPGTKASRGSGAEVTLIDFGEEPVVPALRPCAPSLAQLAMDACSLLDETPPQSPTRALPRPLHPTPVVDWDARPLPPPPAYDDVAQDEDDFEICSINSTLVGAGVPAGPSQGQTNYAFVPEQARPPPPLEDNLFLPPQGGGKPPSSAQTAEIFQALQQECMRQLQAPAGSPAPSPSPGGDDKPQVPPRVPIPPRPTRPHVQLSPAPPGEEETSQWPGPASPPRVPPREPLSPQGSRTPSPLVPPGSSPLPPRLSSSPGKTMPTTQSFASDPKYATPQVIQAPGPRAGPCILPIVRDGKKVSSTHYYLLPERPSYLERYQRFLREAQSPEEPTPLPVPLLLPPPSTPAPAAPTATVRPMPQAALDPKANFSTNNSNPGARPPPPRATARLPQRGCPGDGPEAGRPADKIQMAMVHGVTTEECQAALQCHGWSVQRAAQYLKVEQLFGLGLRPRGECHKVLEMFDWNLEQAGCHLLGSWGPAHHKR
T10 sequence (Q52WX2 whole entry): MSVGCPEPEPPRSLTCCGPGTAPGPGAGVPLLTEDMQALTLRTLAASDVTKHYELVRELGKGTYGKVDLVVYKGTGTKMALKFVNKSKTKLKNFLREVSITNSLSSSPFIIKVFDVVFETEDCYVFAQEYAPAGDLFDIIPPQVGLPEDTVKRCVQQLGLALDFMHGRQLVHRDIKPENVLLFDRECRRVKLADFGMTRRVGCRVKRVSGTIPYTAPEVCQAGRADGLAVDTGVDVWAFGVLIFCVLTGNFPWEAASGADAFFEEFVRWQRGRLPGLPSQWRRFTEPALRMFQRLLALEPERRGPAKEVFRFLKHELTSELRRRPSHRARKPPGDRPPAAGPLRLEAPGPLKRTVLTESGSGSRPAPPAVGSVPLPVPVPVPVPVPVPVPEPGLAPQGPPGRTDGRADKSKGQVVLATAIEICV
T7 sequence (P48730 whole entry): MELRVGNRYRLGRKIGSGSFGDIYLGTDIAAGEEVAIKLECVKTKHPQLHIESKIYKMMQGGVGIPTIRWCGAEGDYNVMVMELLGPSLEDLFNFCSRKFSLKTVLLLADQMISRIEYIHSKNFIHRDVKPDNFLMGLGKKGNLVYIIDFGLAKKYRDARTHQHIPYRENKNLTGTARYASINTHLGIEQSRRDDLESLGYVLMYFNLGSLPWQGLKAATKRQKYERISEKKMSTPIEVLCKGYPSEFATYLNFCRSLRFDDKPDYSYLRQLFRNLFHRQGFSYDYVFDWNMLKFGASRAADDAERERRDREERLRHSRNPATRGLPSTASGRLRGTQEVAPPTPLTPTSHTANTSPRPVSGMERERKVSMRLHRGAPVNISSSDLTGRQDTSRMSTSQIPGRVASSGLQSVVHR
T8 sequence (Q9NWZ3 whole entry): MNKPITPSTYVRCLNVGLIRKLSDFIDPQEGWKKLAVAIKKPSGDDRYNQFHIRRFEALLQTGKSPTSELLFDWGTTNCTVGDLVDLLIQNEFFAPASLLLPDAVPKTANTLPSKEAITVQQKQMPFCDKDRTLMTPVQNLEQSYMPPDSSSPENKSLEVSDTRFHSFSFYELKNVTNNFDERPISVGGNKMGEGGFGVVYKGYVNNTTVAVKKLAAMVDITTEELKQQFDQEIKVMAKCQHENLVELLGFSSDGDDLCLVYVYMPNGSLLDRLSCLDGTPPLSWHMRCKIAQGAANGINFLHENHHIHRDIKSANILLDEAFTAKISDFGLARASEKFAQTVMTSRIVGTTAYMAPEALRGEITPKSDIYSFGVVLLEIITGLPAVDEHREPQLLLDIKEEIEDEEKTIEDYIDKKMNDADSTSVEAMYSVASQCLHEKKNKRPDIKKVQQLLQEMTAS

Cc1cn(CCN2CCN(c3ccccc3-c3cc(C#N)cc(C(=O)NCCCN4CCCC4)c3)CC2)c2ccccc12 [LLY-507, 3-cyano-5-{2-[4-[2-(3-methylindol-1-yl)ethyl]piperazin-1-yl]-phenyl}-N-[(3-pyrrolidin-1-yl)propyl]benzamide]
> 20 µM: IC50 (hMET) | IC50 (hMAP3K4) | IC50 (hICK) | IC50 (hRIOK2) | IC50 (hCSNK1D) | IC50 (hIRAK4) | IC50 (hFLT3(D835Y)) | IC50 (hSBK1) | IC50 (hJNK1) | IC50 (hABL1(F317L)) | IC50 (hKIT(D816V)) | IC50 (hFGFR1) | IC50 (hFLT3(R834Q)) | IC50 (hDYRK1A) | IC50 (hERK5) | IC50 (hSNRK) | IC50 (hDAPK1) | IC50 (hTNK2) | IC50 (hDCAMKL3)
-20.5%: % Effect, Potentiation (hADRα2A)
6.8%: inhibition at 10 µM (h5HT2B)
-7.3%: % Effect, Potentiation (hADORA3)
1.5 to 6 µM: IC50 ([1]; 96 h, 3 to 4-day treatment, read-out: IC50, proliferation, standard assay)
> 10 µM: IC50 (hRARβ) | IC50 (hPPARγ) | IC50 (hTRα1)
0.3 to 3.2 µM: IC50 ([1]; 168 h, 7-day treatment, read-out: IC50, proliferation, longer term assay)

From PMC4447944 (The Journal of Biological Chemistry, 2015)
